For 3 compounds, IC50 results are on record in ChEMBL document CHEMBL2074269, “The interaction of n-tetraalkylammonium compounds with a human organic cation transporter, hOCT1” (J Pharmacol Exp Ther, 1999).

Each structure is given as a SMILES string.

The target of this assay is T1, Solute carrier family 22 member 1 (Homo sapiens, UniProt O15245).
T1 sequence (O15245 whole entry): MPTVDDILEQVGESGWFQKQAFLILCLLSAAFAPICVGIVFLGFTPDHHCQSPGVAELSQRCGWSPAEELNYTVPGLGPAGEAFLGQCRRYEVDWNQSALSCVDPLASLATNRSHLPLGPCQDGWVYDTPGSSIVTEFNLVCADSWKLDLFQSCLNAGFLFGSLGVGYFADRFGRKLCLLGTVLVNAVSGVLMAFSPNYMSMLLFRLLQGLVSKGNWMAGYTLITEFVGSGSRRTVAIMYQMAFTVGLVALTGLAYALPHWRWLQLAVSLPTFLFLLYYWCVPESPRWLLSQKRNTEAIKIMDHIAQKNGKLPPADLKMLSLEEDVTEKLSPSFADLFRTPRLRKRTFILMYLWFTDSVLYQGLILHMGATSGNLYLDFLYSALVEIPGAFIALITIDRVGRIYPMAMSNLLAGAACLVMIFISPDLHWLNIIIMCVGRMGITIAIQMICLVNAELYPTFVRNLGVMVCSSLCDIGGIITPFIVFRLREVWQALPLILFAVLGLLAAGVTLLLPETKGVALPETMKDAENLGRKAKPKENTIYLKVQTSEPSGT
Type of assay: functional, cell-based, HeLa.

`CCCC[N+](CCCC)(CCCC)CCCC` [TETRABUTHYLAMMONIUM] returned a concentration for half-maximal inhibition (IC50) of 52 µM.

In the case of `CCCCCC[N+](CCCCCC)(CCCCCC)CCCCCC` [TETRAHEXYLAMMONIUM], the half-inhibitory concentration (IC50) amounted to 3 µM.

In the case of `CCC[N+](CCC)(CCC)CCC` [TETRAPROPYLAMMONIUM], half-maximal inhibition (IC50) was put at 90 µM.

A word on the IC50: it is the midpoint of a concentration-inhibition curve.
